Measurements reported in ChEMBL document CHEMBL1201862, “PubChem BioAssay data set” (2004).
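Five compound concentrations were applied to cells in 96-well plates for 48 hours; endpoints were derived by simple linear interpolation of the resulting dose-response curve. GI50 marks 50% less growth.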 Calls of active or inactive are those of the source. No stated cut-off is given here; in the data, active = GI50 up to about 1.1 µM and inactive = higher.

How the values were obtained:
Assay in all cases: NCI anticancer screen, dose series, 48 h
OVCAR-4 = test system: OVCAR-4
HL-60 = test system: HL-60
UACC-62 = test system: UACC-62
LOX IMVI = test system: LOX IMVI
SK-OV-3 = test system: SK-OV-3
HOP-62 = test system: HOP-62
KM12 = test system: KM12
SF-268 = test system: SF-268
SN12C = test system: SN12C
SR = test system: SR
HT-29 = test system: HT-29
HCC 2998 = test system: HCC 2998
RXF 393 = test system: RXF 393
SNB-19 = test system: SNB-19
HCT-116 = test system: HCT-116
UACC-257 = test system: UACC-257
NCI-H460 = test system: NCI-H460
IGROV-1 = test system: IGROV-1
SF-295 = test system: SF-295

Measured: GI50

Cc1cccc2c(=O)c([Se]c3coc4c(C)cccc4c3=O)coc12
inactive: OVCAR-4 16.7 µM | HL-60 30.6 µM | UACC-62 17.8 µM | LOX IMVI 20 µM | SK-OV-3 17.6 µM | HOP-62 11.9 µM | KM12 13.7 µM | SF-268 19.6 µM | SN12C 18.5 µM | SR 14.8 µM | HT-29 25.6 µM | HCC 2998 21.2 µM | RXF 393 17.8 µM | SNB-19 19.4 µM | HCT-116 5.68 µM | UACC-257 18.2 µM | NCI-H460 5.73 µM | IGROV-1 13.6 µM | SF-295 3.56 µM

O=C(Cc1ccccc1)Oc1ccc2c(-c3ccccc3)c(C(=O)Nc3ccc(Cl)cc3)c(=O)oc2c1
inactive: OVCAR-4 > 100 µM | HL-60 > 100 µM | UACC-62 > 100 µM | LOX IMVI > 100 µM | SK-OV-3 > 100 µM | HOP-62 > 100 µM | KM12 > 100 µM | SF-268 > 100 µM | SN12C > 100 µM | SR > 100 µM | HT-29 > 100 µM | HCC 2998 > 100 µM | RXF 393 > 100 µM | SNB-19 > 100 µM | HCT-116 > 100 µM | UACC-257 > 100 µM | NCI-H460 > 100 µM | IGROV-1 > 100 µM | SF-295 > 100 µM

Fc1cccc(C2SCc3nc4ccccc4n32)c1F (centres undefined)
inactive: OVCAR-4 42.1 µM | HL-60 16.1 µM | UACC-62 63.5 µM | LOX IMVI 84.3 µM | SK-OV-3 > 100 µM | HOP-62 > 100 µM | KM12 66.1 µM | SF-268 98.4 µM | SN12C 89.7 µM | SR 28.4 µM | HT-29 79.4 µM | HCC 2998 > 100 µM | RXF 393 54.2 µM | SNB-19 > 100 µM | HCT-116 48.5 µM | UACC-257 32.7 µM | NCI-H460 51.5 µM | IGROV-1 73.8 µM | SF-295 30.8 µM

Cc1cccc(C(C)C)c1NC(=O)CC1C(=O)Nc2ccccc2S1(=O)=O (centres undefined)
inactive: OVCAR-4 12.2 µM | HL-60 5.28 µM | UACC-62 11.8 µM | LOX IMVI 22.2 µM | SK-OV-3 > 100 µM | HOP-62 54.6 µM | KM12 19.4 µM | SF-268 12.8 µM | SN12C 23.2 µM | SR 1.48 µM | HT-29 12.6 µM | HCC 2998 22.9 µM | RXF 393 10.2 µM | SNB-19 29.2 µM | HCT-116 15.7 µM | UACC-257 23.6 µM | NCI-H460 12.8 µM | IGROV-1 22.5 µM | SF-295 18.2 µM

COc1ccccc1NC(=O)C(=O)C(c1cnc2ccc([N+](=O)[O-])cc2n1)[N+](=O)[O-] (centres undefined)
inactive: OVCAR-4 > 100 µM | HL-60 19.5 µM | UACC-62 53 µM | LOX IMVI > 100 µM | SK-OV-3 > 100 µM | HOP-62 > 100 µM | KM12 > 100 µM | SF-268 > 100 µM | SN12C > 100 µM | SR 45.6 µM | HT-29 > 100 µM | HCC 2998 92 µM | RXF 393 > 100 µM | SNB-19 > 100 µM | HCT-116 > 100 µM | UACC-257 > 100 µM | NCI-H460 > 100 µM | IGROV-1 > 100 µM | SF-295 > 100 µM

O=C(Cc1ccccc1)C(c1ccccc1)S(=O)(=O)c1ccccc1 (centres undefined)
inactive: OVCAR-4 73.3 µM | HL-60 > 100 µM | UACC-62 75.2 µM | LOX IMVI > 100 µM | SK-OV-3 > 100 µM | HOP-62 > 100 µM | KM12 > 100 µM | SF-268 > 100 µM | SN12C > 100 µM | SR 69.3 µM | HT-29 > 100 µM | HCC 2998 > 100 µM | RXF 393 67 µM | SNB-19 > 100 µM | HCT-116 59.3 µM | UACC-257 > 100 µM | NCI-H460 > 100 µM | IGROV-1 > 100 µM | SF-295 > 100 µM
